Two compounds from patent EP0601187A1, “NOVEL ANTIBIOTIC AND PRODUCTION AND USE THEREOF” (HIGETA SHOYU CO., LTD., priority 1992, dated 1993) can be followed below.

For data set [1], the system named is Trichosporon cutaneum IFO1500. Particulars: pH 6.8.
The test system of data set [2] is Fusarium oxysporum HUT5015. The following applies: pH 6.8.
Data set [3] deals with Botrytis cinerea IFO31831. Particulars: pH 6.8.
The test system of data set [4] is Diaporothe citiri IFO9170. Particulars: pH 6.8.
In data set [5] the test system is Cryptococcus neoformans IFO1320. Particulars: IFO1320, pH 6.8.
Data set [6] has as its system Trichophyton mentagrophytes IFO6124. Particulars: pH 6.8.
Another data set relates to ddy-N mice. Briefly: Acute toxicity test, single intravenous injection. The data set is classed as in vivo. On the procedure:
In the next test, mice of the same kind as mentioned above were used. Each of HUT57A and HUT57B was dissolved in DMSO (dimethylsulfoxide)-castor oil-5 % Glc solution, and the resulting solution was injected to the caudal vein of each of the five male mice once or plural times. For the single injection, the solution was administered to the mice each in an amount of 200 mg per kg of the body weight; and for the plural injections, it was administered to them 14 times each in an amount of 30 mg/kg/day.

The next data set relates to Candida albicans DUC1001. Briefly: Antifungal activity in vitro by counting the number of the living cells. Particulars: just after addition at 25, 40 and 80 µg/ml. The data set is classed as cell-based.
In data set [7] the test system is Aspergillus flavas IAM2044. The following applies: pH 6.8.
The test system of data set [8] is Fusarium solani ATCC11712. The following applies: ATCC11712, pH 6.8.
For data set [9], the system named is Trichophyton rubrum IFO9185. Particulars: pH 6.8.
Data set [10] concerns Candida albicans IFM4009, Aspergillus fumigatus Tsukuba No. 12, Cryptococcus neoformans 145A. In words: Effectiveness in systemically fungi-infected mice. The data set is classed as in vivo. The following applies: mice intravenously inoculated with clinically isolated strains. The source says:
As one example of the test of testing the effectiveness of the active substances, HUT57A or HUT57B may be administered to systemically fungi-infected mice, to which various clinically isolated strains (Candida albicans IFM4009, Aspergillus fumigatus Tsukuba No. 12, Cryptococcus neoformans 145A) were intravenously inoculated, whereby the effectiveness of administered the substance may be examined.

Data set [11] concerns Mucor guilliermondii IFO9403. The following applies: pH 6.8.
In data set [12] the test system is Candida tropicalis IFO3256. The following applies: IFO3256, pH 6.8.
In data set [13] the test system is Aspergillus fumigatus IAM2612. Particulars: IAM2612, pH 6.8.

What is called MIC is the smallest concentration in the dilution series that meets the test's criterion for growth inhibition.

Structures are written as SMILES. In brackets after ≈: the same amount, converted by molar mass. Numbered stars: 1 amine (or outer) side, 2 acyl side, 3 side chain; on linkers, the order of the positions; unused ones are H or OH. Square brackets hold non-standard residues; d marks the D form. Peptide text beside a SMILES is read from it. Gly(Dodecyl) = CCCCCCCCCCCC[C@H](N)C(=O)O; X1 = CCCCCCCCCCCCC[C@H](N[*:1])C(=O)[*:2]

In the case of `CCCCCCCCCCCC[C@@H]1NC(=O)[C@H](CCC(N)=O)NC(=O)[C@H](CC(N)=O)NC(=O)[C@H](Cc2ccc(O)cc2)NC(=O)[C@H](CC(N)=O)NC(=O)[C@@H]2CCCN2C(=O)[C@H](CO)NC(=O)[C@H](CC(N)=O)NC1=O` [HUT57A, X-Asn-Ser-Pro-Asn-Tyr-Asn-Gln] (cyclo([Gly(Dodecyl)]NSPNYNQ)), the minimal inhibitory concentration (MIC) was 23.0 µg/mL (≈ 22 µM) in data set [1]; 1.2 µg/mL (≈ 1.15 µM) in data set [2]; 2.2 µg/mL (≈ 2.11 µM) in data set [3]; 1.0 µg/mL (≈ 0.959 µM) in [4]; 6.0 µg/mL (≈ 5.75 µM) in [5]; 10.0 µg/mL (≈ 9.59 µM) in data set [6]. The minimal inhibitory concentration (MIC) in [7] is 2.3 µg/mL (≈ 2.2 µM); in data set [8], 2.8 µg/mL (≈ 2.68 µM); in data set [9] it was 6.2 µg/mL (≈ 5.94 µM); in [11], 1.2 µg/mL (≈ 1.15 µM); in data set [12], 11.4 µg/mL (≈ 10.9 µM); in data set [13] it was 1.3 µg/mL (≈ 1.25 µM). In addition, the “Hemolyzation Activity” value in “Hemolyzation Activity” is “-”. The “LD₅₀ by single intravenous injection” value in the data set with ddy-N mice is on record as at least 200 mg/kg. Moreover, the “number of the living cells” value in the data set with Candida albicans DUC1001 was “noticeably decreased”. For the same compound, the “effectiveness to systemic mycosis in mice” value in [10] is “effective”.

As for `CCCCCCCCCCCCC[C@@H]1NC(=O)[C@H](CCC(N)=O)NC(=O)[C@H](CC(N)=O)NC(=O)[C@H](Cc2ccc(O)cc2)NC(=O)[C@H](CC(N)=O)NC(=O)[C@@H]2CCCN2C(=O)[C@H](CO)NC(=O)[C@H](CC(N)=O)NC1=O` [HUT57B, X-Asn-Ser-Pro-Asn-Tyr-Asn-Gln] (cyclo([X1]NSPNYNQ)), the MIC in data set [1] was determined as 23.0 µg/mL (≈ 21.8 µM); in data set [2] it was 1.2 µg/mL (≈ 1.14 µM); in data set [3], 2.1 µg/mL (≈ 1.99 µM); in data set [4] it was 1.0 µg/mL (≈ 0.946 µM); in [5], 5.2 µg/mL (≈ 4.92 µM); in data set [6], 10.0 µg/mL (≈ 9.46 µM). Besides, the MIC in [7] turned out to be 2.4 µg/mL (≈ 2.27 µM); in data set [8], 2.8 µg/mL (≈ 2.65 µM); in [9], 5.4 µg/mL (≈ 5.11 µM); in data set [11] it was 1.2 µg/mL (≈ 1.14 µM); in data set [12], 11.2 µg/mL (≈ 10.6 µM); in [13], 1.3 µg/mL (≈ 1.23 µM). For the same compound, in “Hemolyzation Activity”, the “Hemolyzation Activity” value is reported as “-”. Further, in the data set on ddy-N mice, the “LD₅₀ by single intravenous injection” value was at least 200 mg/kg. Besides, the “number of the living cells” value with Candida albicans DUC1001 is listed as “noticeably decreased”. The “effectiveness to systemic mycosis in mice” value in data set [10] is “effective”.
